Laboratory results published in US10005769B2, “2,3-dihydrobenzofuran-5YL compounds as DYRK kinase inhibitors” (4SC DISCOVERY GMBH, priority 2013, dated 2018).

Columns and labels:
DYRK1B = DYRK1B (Homo sapiens (Human), UniProt Q9Y463); test: DYRK1B Kinase Assay (33P ATP, DYRKtide substrate, Reaction Biology Corp.); type: biochemical; settings: 0.3 nM DYRK1B, 20 μM DYRKtide, 10 μM ATP, 25° C., 120 min
Description: The assay was carried out by Reaction Biology Corp., […], Pa., USA according to specifications by Reaction Biology Corp., as detailed herein below and further described in Anastassiadis et al., Nature Biotechnology, 29 (2011) 1039-1045. The substrate DYRKtide (synthetic peptide RRRFRPASPLRGPPK) was dissolved in freshly prepared Base Reaction Buffer (20 mM Hepes (pH 7.5), 10 mM MgCl2, 1 mM EGTA, 0.02% Brij35, 0.02 mg/ml BSA, 0.1 mM Na3VO4, 2 mM DTT, 1% DMSO) at a concentration of 20 μM. DYRK1B was added to the substrate solution in a concentration of 0.3 nM and gently mixed. Dilution series of the compounds according to the present invention in DMSO were prepared. Each dilution was added to a batch of the above reaction mix, followed 20 min later by addition of a mixture of ATP and ^33P ATP (specific activity 0.01 μCi/μl final) to a final concentration of 10 μM. Reactions were carried out at 25° C. for 120 min, followed by spotting the reactions onto P81 ion exchange filter paper. Unbound phosphate was removed by extensive washing of the filters in 0.75% phosphoric acid. […] IC50 values and curve fits were obtained using Prism (Graph Pad Software). DYRK1B used in the above assays are further described in the below table: [table] Exemplary compound dilution series, final concentrations of compound in the assay vessel; the individual concentrations and the range of concentrations covered by the dilution series may differ for each compound, as long as enough data points are obtained to determine the compound's IC50: DYRK 1[…].

[1] = tested on: Hedgehog signaling pathway (Gli Reporter - NIH3T3 cell line); test: Hedgehog Reporter Assay (Gli-Reporter, luciferase, mSHH stimulated); type: cell-based, murine; settings: Mus musculus; Gli Reporter NIH3T3 cells, 1 μg/ml mSHH, 24 h
Description: In order to investigate the potency of test compounds to inhibit the Hedgehog signaling pathway, a Gli-Reporter assay was performed. The “Gli Reporter-NIH3T3” cell line contains the firefly luciferase gene under the control of Gli responsive elements stably integrated into murine NIH3T3 cells (cells purchased from AMS Biotechnology ltd., 184 Milton Park, Abingdon OX14 4SE, U.K.). The luciferase expression correlates with activation of the hedgehog signaling pathway. This cell line is validated for its response to stimulation with murine Sonic Hedgehog and to treatment with inhibitors of the hedgehog signaling pathway. A multiplexed viability assay was used to discriminate inhibition on the pathway activity from cell toxicity. Growth Medium: DMEM (Dulbecco's Modified Eagle Medium); 10% Fetal Calf Serum; 1% Penicillin/Streptomycin; 500 μg/ml Geneticin (G418 Stock 50 mg/ml). Assay Medium: Opti-MEM® Reduced Serum Medium; 0.5% Calf Serum; 1% non-essential amino acids; 1 mM Na-pyruvate; 10 mM HEPES; 1% Penicillin/Streptomycin. 25,000 cells per well were seeded into a white 96 well plate in 100 μl growth medium and incubated over night at 37° C. and 5% CO2. After removing the supernatant the test compounds and controls were added in different concentrations in a final volume of 45 μl and incubated for 1 h at 37° C. and 5% CO2. For the stimulation of the Hedgehog pathway 5 μl of 10 μg/ml concentrated murine SHH (or mSHH; murine sonic hedgehog protein) was added to the cells. A final concentration of 1 μg/ml mSHH and 0.1% DMSO was reached per well. After incubation for 24 h at 37° C. the cells were investigated for viability and reporter activity. Viability: For the determination of the viability of the treated cells the CellTiter-FluorTM Kit from Promega comprising the fluorogenic, cell-permeant peptide substrate ([…]-aminofluorocoumarin GF-AFC was used. Roughly, only proteases of viable cells are able to cleave the GF-AFC. By this cleavage the fluorescent AFC is set free and can be detected in a fluorescence reader. For this assay 10 μl of GF-AFC substrate (CellTiter-FluorTM, Promega #G6082) was diluted in 2 ml assay buffer from the CellTiter-FluorTM Kit and 10 μl of this dilution was added per well to the cells and incubated for 30 min at 37° C. The fluorescence was measured with an excitation of 380-400 nm and an emission of 505 nm. Reporter activity: The firefly luciferase reporter activity was detected with the ONE-GloTM Luciferase Assay System from Promega. For this assay 50 μl ONE-Glo luciferase reagent (Promega #E6120, contains cell lysis buffer and luciferin) was added to each well and incubated at room temperature for 5 min. Luminescence was detected in a plate reader and served as a measure for reporter activity.

[2] = tested on: L3.6pl human metastatic pancreatic adenocarcinoma cells; test: Xenograft assay with L3.6pl cancer cells; type: in vivo, Foxn1nu/nu nude mice; settings: 100 mg/kg/day p.o. daily
Description: The x-axis reflects the time [in days], while the y-axis reflects the tumor volume [in mm^3]. A xenograft assay with L3.6pl cancer cells was prepared as follows: 1×10^5 L3.6pl (Bruns et al., 1999) human metastatic pancreatic adenocarcinoma cells in 25% Matrigel (BD Biosciences, NJ, USA) were injected subcutaneously into the lower flanks of Foxn1nu/nu nude mice (Charles River Laboratories, USA). The compound of example 5 was administered p.o. daily with 100 mg/kg/day, dissolved in a mixture of 20% Glycofurol 75, 20% Oleic acid and 60% Olive oil; administration was started at the same day of injection of tumor cells. As a negative control, separate aminals were administered solvent vehicle without active compound. The tumor volume was measured with a caliper and calculated according to the formula [4/3×π×(length/2)×(width/2)×(height/2). Results are shown in FIG. 1, the p value was <0.01.

Chain of DYRK1B (Q9Y463 whole entry): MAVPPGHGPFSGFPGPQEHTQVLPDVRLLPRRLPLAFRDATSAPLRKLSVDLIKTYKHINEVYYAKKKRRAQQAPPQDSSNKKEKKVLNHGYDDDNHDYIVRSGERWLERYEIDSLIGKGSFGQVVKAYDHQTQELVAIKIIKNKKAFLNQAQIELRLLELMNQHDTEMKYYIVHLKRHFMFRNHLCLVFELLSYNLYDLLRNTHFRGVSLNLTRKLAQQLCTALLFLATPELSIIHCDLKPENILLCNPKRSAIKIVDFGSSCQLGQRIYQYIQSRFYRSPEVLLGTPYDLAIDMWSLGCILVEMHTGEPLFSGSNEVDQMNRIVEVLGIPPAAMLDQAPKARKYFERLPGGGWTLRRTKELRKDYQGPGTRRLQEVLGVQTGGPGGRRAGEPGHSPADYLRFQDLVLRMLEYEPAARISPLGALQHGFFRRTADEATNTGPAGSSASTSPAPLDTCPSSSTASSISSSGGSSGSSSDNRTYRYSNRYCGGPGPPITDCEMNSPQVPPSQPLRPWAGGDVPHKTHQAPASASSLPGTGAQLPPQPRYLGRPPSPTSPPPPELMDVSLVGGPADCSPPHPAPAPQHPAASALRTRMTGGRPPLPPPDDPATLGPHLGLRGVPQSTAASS

IC50 (DYRK1B) [nM] | animals' weight over the course of the experiment [2] | Structure (SMILES) | IC50 [1] [nM]
3.11 | – | O=C(Nc1nc2cc(C(=O)N3CCN(CC4CCCO4)CC3)ccc2[nH]1)c1csc(-c2ccc3c(c2)CCO3)n1 (centres unmarked) [Compound 8, 2-(2,3-Dihydrobenzofuran-5-yl)-N-(5-(4-((tetrahydrofuran-2-yl)methyl)piperazine-1-carbonyl)-1H-benzo[d]imidazol-2-yl)thiazole-4-carboxamide] | < 1000
156 | – | O=C(Nc1nc2c(C(F)(F)F)cccc2[nH]1)c1csc(-c2ccc3c(c2)CCO3)n1 [Compound 12, 2-(2,3-Dihydrobenzofuran-5-yl)-N-(4-(trifluoromethyl)-1H-benzo[d]imidazol-2-yl)thiazole-4-carboxamide] | 3000 to 10000
1.49 | – | CS(=O)(=O)c1ccc2[nH]c(NC(=O)c3csc(-c4ccc5c(c4)CCO5)n3)nc2c1 [Compound 3, 2-(2,3-Dihydrobenzofuran-5-yl)-N-(5-(methylsulfonyl)-1H-benzo[d]imidazol-2-yl)thiazole-4-carboxamide] | < 1000
49.8 | – | CN1CCN(C(=O)c2nnc(NC(=O)c3csc(-c4ccc5c(c4)CCO5)n3)[nH]2)CC1 [Compound 27, 2-(2,3-Dihydrobenzofuran-5-yl)-N-(5-(4-methylpiperazine-1-carbonyl)-4H-1,2,4-triazol-3-yl)thiazole-4-carboxamide] | 3000 to 10000
111 | – | COc1cccc(-c2c[nH]c(NC(=O)c3csc(-c4ccc5c(c4)CCO5)n3)n2)c1 [Compound 13, 2-(2,3-Dihydrobenzofuran-5-yl)-N-(4-(3-methoxyphenyl)-1H-imidazol-2-yl)thiazole-4-carboxamide] | 1000 to 3000
13.9 | – | COc1ccc2[nH]c(NC(=O)c3csc(-c4ccc5c(c4)CCO5)n3)nc2c1 [Compound 4, 2-(2,3-Dihydrobenzofuran-5-yl)-N-(5-methoxy-1H-benzo[d]imidazol-2-yl)thiazole-4-carboxamide] | 3000 to 10000
60.1 | – | Cc1n[nH]c(NC(=O)c2csc(-c3ccc4c(c3)CCO4)n2)n1 [Compound 44, 2-(2,3-Dihydrobenzofuran-5-yl)-N-(3-methyl-1H-1,2,4-triazol-5-yl)thiazole-4-carboxamide] | 3000 to 10000
72 | – | CN(C)C(=O)c1n[nH]c(NC(=O)c2csc(-c3ccc4c(c3)CCO4)n2)n1 [Compound 29, 2-(2,3-Dihydrobenzofuran-5-yl)-N-(5-(dimethylcarbamoyl)-4H-1,2,4-triazol-3-yl)thiazole-4-carboxamide] | 3000 to 10000
0.699 | – | COCCNC(=O)c1ccc2[nH]c(NC(=O)c3csc(-c4ccc5c(c4)CCO5)n3)nc2c1 [Compound 23, 2-(2,3-Dihydrobenzofuran-5-yl)-N-(5-((2-methoxyethyl)carbamoyl)-1H-benzo[d]imidazol-2-yl)thiazole-4-carboxamide] | < 1000
15.3 | – | O=C(Nc1nc(-c2ccco2)n[nH]1)c1csc(-c2ccc3c(c2)CCO3)n1 [Compound 46, 2-(2,3-Dihydrobenzofuran-5-yl)-N-(3-(furan-2-yl)-1H-1,2,4-triazol-5-yl)thiazole-4-carboxamide] | 3000 to 10000
2.17 | – | CCN1CCN(C(=O)c2ccc3[nH]c(NC(=O)c4csc(-c5ccc6c(c5)CCO6)n4)nc3c2)CC1 [Compound 47, 2-(2,3-Dihydrobenzofuran-5-yl)-N-(5-(4-ethylpiperazine-1-carbonyl)-1H-benzo[d]imidazol-2-yl)thiazole-4-carboxamide] | < 1000
1.74 | – | CN(C)C(=O)c1ccc2[nH]c(NC(=O)c3csc(-c4ccc5c(c4)CCO5)n3)nc2c1 [Compound 7, 2-(2,3-Dihydrobenzofuran-5-yl)-N-(5-(dimethylcarbamoyl)-1H-benzo[d]imidazol-2-yl)thiazole-4-carboxamide] | < 1000
3.63 | – | CCOC(=O)c1ccc2[nH]c(NC(=O)c3csc(-c4ccc5c(c4)CCO5)n3)nc2c1 [Compound 9, Ethyl 2-(2-(2,3-dihydrobenzofuran-5-yl)thiazole-4-carboxamido)-1H-benzo[d]imidazole-5-carboxylate] | < 1000
1.38 | – | N#Cc1ccc2[nH]c(NC(=O)c3csc(-c4ccc5c(c4)CCO5)n3)nc2c1 [Compound 1, N-(5-Cyano-1H-benzo[d]imidazol-2-yl)-2-(2,3-dihydrobenzofuran-5-yl)thiazole-4-carboxamide] | 1000 to 3000
3.51 | – | O=C(Nc1nc(C(=O)NC2CC2)n[nH]1)c1csc(-c2ccc3c(c2)CCO3)n1 [Compound 25, N-(3-(Cyclopropylcarbamoyl)-1H-1,2,4-triazol-5-yl)-2-(2,3-dihydrobenzofuran-5-yl)thiazole-4-carboxamide] | 1000 to 3000
19.5 | – | CN1CCN(c2ccc3nc(NC(=O)c4csc(-c5ccc6c(c5)CCO6)n4)sc3c2)CC1 [Compound 41, 2-(2,3-Dihydrobenzofuran-5-yl)-N-(6-(4-methylpiperazin-1-yl)benzo[d]thiazol-2-yl)thiazole-4-carboxamide] | 3000 to 10000
90.9 | essentially unchanged | O=C(Nc1nc2cc(C(F)(F)F)ccc2[nH]1)c1csc(-c2ccc3c(c2)CCO3)n1 [Compound 5, 2-(2,3-Dihydrobenzofuran-5-yl)-N-(5-(trifluoromethyl)-1H-benzo[d]imidazol-2-yl)thiazole-4-carboxamide] | 1000 to 3000
1.9 | – | O=C(Nc1nc2cc(Cl)ccc2[nH]1)c1csc(-c2ccc3c(c2)CCO3)n1 [Compound 6, N-(5-Chloro-1H-benzo[d]imidazol-2-yl)-2-(2,3-dihydrobenzofuran-5-yl)thiazole-4-carboxamide] | 1000 to 3000
29.4 | – | O=C(Nc1ccccn1)c1csc(-c2ccc3c(c2)CCO3)n1 [Compound 17, 2-(2,3-Dihydrobenzofuran-5-yl)-N-(pyridin-2-yl)thiazole-4-carboxamide] | 3000 to 10000
1350 | – | O=C(Nc1nc(SCc2ccccc2)n[nH]1)c1csc(-c2ccc3c(c2)CCO3)n1 [Compound 32, N-(3-(Benzylthio)-1H-1,2,4-triazol-5-yl)-2-(2,3-dihydrobenzofuran-5-yl)thiazole-4-carboxamide] | 3000 to 10000
